# pIC50: −log10 of the molar value. Like-named read-outs stand apart in the source and are kept apart here.
# Tests used:
# L1210 = assay: cells; assay type: cell-based, mouse
# Method in brief: (§1)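 Compound exposure ran 72 h at six concentrations (0–1000 nM or 0–10000 nM, duplicate) on cells plated at 30,000 cells/mL in 10% FBS DMEM. A closing 37 °C incubation took 15 min (HCT116) or 5 min (L1210).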
# HCT116 = assay: cells; assay type: cell-based, human; settings: read-out: IC50 HCT116
# Method in brief: as §1
SMILES,pIC50 (L1210; Table 2),pIC50 (HCT116; Table 2),further results
CC[C@]1(NC(=O)c2ccccc2OC(F)(F)F)C[C@H]2CN(CCc3c([nH]c4ccccc34)[C@@](C(=O)OC)(c3cc4c(cc3OC)N(C)[C@H]3[C@@](O)(C(=O)OC)[C@H](OC(C)=O)[C@]5(CC)C=CCN6CC[C@]43[C@@H]65)C2)C1 [Compound 80],6.35,6.32,–
CCC1(NC(=O)c2cccc(OC(F)(F)F)c2)CC2CN(CCc3c([nH]c4ccccc34)C(C(=O)OC)(c3cc4c(cc3OC)N(C)C3C(O)(C(=O)OC)C(OC(C)=O)C5(CC)C=CCN6CCC43C65)C2)C1 (centres unmarked) [Compound 79],8.32,8.23,–
CC[C@]1(NC(=O)c2ccc3scnc3c2)C[C@H]2CN(CCc3c([nH]c4ccccc34)[C@@](C(=O)OC)(c3cc4c(cc3OC)N(C)[C@H]3[C@@](O)(C(=O)OC)[C@H](OC(C)=O)[C@]5(CC)C=CCN6CC[C@]43[C@@H]65)C2)C1 [Compound 171],–,–,pIC50 (L1210; Table 6): 9.22; pIC50 (HCT116; Table 6): 9.15
CCC1(NC(=O)c2cncn2C)CC2CN(CCc3c([nH]c4ccccc34)C(C(=O)OC)(c3cc4c(cc3OC)N(C)C3C(O)(C(=O)OC)C(OC(C)=O)C5(CC)C=CCN6CCC43C65)C2)C1 (centres unmarked) [Compound 141],–,–,pIC50 (L1210; Table 5): 8.40; pIC50 (HCT116; Table 5): 8.66
CC[C@]1(NC(=O)c2ccc(CC(C)C)cc2)C[C@H]2CN(CCc3c([nH]c4ccccc34)[C@@](C(=O)OC)(c3cc4c(cc3OC)N(C)[C@H]3[C@@](O)(C(=O)OC)[C@H](OC(C)=O)[C@]5(CC)C=CCN6CC[C@]43[C@@H]65)C2)C1 [Compound 36],7.60,8.00,–
CC[C@]1(NC(=O)c2ccc(C(C)C)cc2)C[C@H]2CN(CCc3c([nH]c4ccccc34)[C@@](C(=O)OC)(c3cc4c(cc3OC)N(C)[C@H]3[C@@](O)(C(=O)OC)[C@H](OC(C)=O)[C@]5(CC)C=CCN6CC[C@]43[C@@H]65)C2)C1 [Compound 32],8.27,8.19,–
CC[C@]1(NC(=O)c2cnccn2)C[C@H]2CN(CCc3c([nH]c4ccccc34)[C@@](C(=O)OC)(c3cc4c(cc3OC)N(C)[C@H]3[C@@](O)(C(=O)OC)[C@H](OC(C)=O)[C@]5(CC)C=CCN6CC[C@]43[C@@H]65)C2)C1 [Compound 131],–,–,pIC50 (L1210; Table 5): 7.40; pIC50 (HCT116; Table 5): 7.70
CCCCc1ccc(C(=O)N[C@@]2(CC)C[C@H]3CN(CCc4c([nH]c5ccccc45)[C@@](C(=O)OC)(c4cc5c(cc4OC)N(C)[C@H]4[C@@](O)(C(=O)OC)[C@H](OC(C)=O)[C@]6(CC)C=CCN7CC[C@]54[C@@H]76)C3)C2)cc1 [Compound 35],7.52,7.70,–
CCC1(NC(=O)c2coc3ccccc23)CC2CN(CCc3c([nH]c4ccccc34)C(C(=O)OC)(c3cc4c(cc3OC)N(C)C3C(O)(C(=O)OC)C(OC(C)=O)C5(CC)C=CCN6CCC43C65)C2)C1 (centres unmarked) [Compound 159],–,–,pIC50 (L1210; Table 6): 8.40; pIC50 (HCT116; Table 6): 8.34
CCC1(NC(=O)c2ccc3c(c2)ncn3C)CC2CN(CCc3c([nH]c4ccccc34)C(C(=O)OC)(c3cc4c(cc3OC)N(C)C3C(O)(C(=O)OC)C(OC(C)=O)C5(CC)C=CCN6CCC43C65)C2)C1 (centres unmarked) [Compound 166],–,–,pIC50 (L1210; Table 6): 9.15; pIC50 (HCT116; Table 6): 9.22
CCC1(NC(=O)c2ccc(OC)cc2)CC2CN(CCc3c([nH]c4ccccc34)C(C(=O)OC)(c3cc4c(cc3OC)N(C)C3C(O)(C(=O)OC)C(OC(C)=O)C5(CC)C=CCN6CCC43C65)C2)C1 (centres unmarked) [Compound 67],9.60,9.52,–
CC[C@]1(NC(=O)c2ccc(Cl)cc2)C[C@H]2CN(CCc3c([nH]c4ccccc34)[C@@](C(=O)OC)(c3cc4c(cc3OC)N(C)[C@H]3[C@@](O)(C(=O)OC)[C@H](OC(C)=O)[C@]5(CC)C=CCN6CC[C@]43[C@@H]65)C2)C1 [Compound 47],8.51,8.49,–
CC[C@]1(NC(=O)C(C)(C)C)C[C@H]2CN(CCc3c([nH]c4ccccc34)[C@@](C(=O)OC)(c3cc4c(cc3OC)N(C)[C@H]3[C@@](O)(C(=O)OC)[C@H](OC(C)=O)[C@]5(CC)C=CCN6CC[C@]43[C@@H]65)C2)C1 [Compound 14],–,–,pIC50 (L1210; Table 1): 5.55; pIC50 (HCT116; Table 1): 5.44
